{"source": "paper PMC2896895", "about": "(Cell cycle (Georgetown, Tex.), 2009)", "key": {"[1]": {"system": "AR-dependent luciferase reporter (ARE-Luc) in CWR22R cells", "assay": "AR-dependent luciferase reporter", "type": "cell-based, human", "conditions": "10μM of compounds, 24h, vs 0.1% DMSO"}, "[2]": {"system": "Prostate Specific Antigen (PSA) expression in C4-2 cells", "assay": "PSA secretion by C4-2 cells", "type": "cell-based, human", "conditions": "10μM of compounds, 72h, PSA in medium vs 0.1% DMSO"}, "LNCaP cells": {"system": "LNCaP cells", "assay": "Colony formation assay, LNCaP", "type": "cell-based, human"}, "C4-2 cells": {"system": "C4-2 cells", "assay": "Colony formation assay, C4-2", "type": "cell-based, human"}, "CWR22R cells": {"system": "CWR22R cells", "assay": "Colony formation / growth assay, CWR22R", "type": "cell-based, human"}, "PSA levels": {"system": "PSA levels", "conditions": "Phase I clinical trial, castration resistant PCa; cited from earlier work"}, "AR LBD": {"system": "AR LBD", "conditions": "non-competitive antagonists; cited from earlier work"}, "[3]": {"conditions": "number of colonies, vs 0.1% DMSO"}}}
{"compound": "CC(O)(CS(=O)(=O)c1ccc(F)cc1)C(=O)Nc1ccc(C#N)c(C(F)(F)F)c1", "note": "(stereo not shown) [Bic, bicalutamide]", "values": [{"measurement": "Activity of ARE-Luc in CWR22R11 cells", "setting": "[1]", "result": "43 % of DMSO"}, {"measurement": "PSA secretion in C4-2 cells", "setting": "[2]", "result": "0 % of DMSO"}, {"measurement": "growth of androgen-sensitive LNCaP cells", "setting": "LNCaP cells; colony formation, 10μM", "result": "suppressed growth"}, {"measurement": "Survival of cells in the presence of 10μM of a compound (DMSO=100%), LNCaP", "setting": "LNCaP cells; [3]", "result": 19, "unit": "%"}, {"measurement": "growth of androgen-independent C4-2 cells", "setting": "C4-2 cells; colony formation, 10μM", "result": "did not suppress growth"}, {"measurement": "Survival of cells in the presence of 10μM of a compound (DMSO=100%), C4-2", "setting": "C4-2 cells; [3]", "result": 91, "unit": "%"}, {"measurement": "growth of androgen-independent CWR22R cells", "setting": "CWR22R cells; colony formation, 10μM", "result": "did not suppress growth"}, {"measurement": "Survival of cells in the presence of 10μM of a compound (DMSO=100%), CWR22R", "setting": "CWR22R cells; [3]", "result": 100, "unit": "%"}]}
{"compound": "CNC(=O)c1ccc(N2C(=S)N(c3ccc(C#N)c(C(F)(F)F)c3)C(=O)C2(C)C)cc1F", "note": "[MDV3100]", "values": [{"measurement": "PSA levels in patients", "setting": "PSA levels", "result": "efficacy in decreasing PSA levels"}]}
{"compound": "CNC(=O)c1ccc(N2C(=S)N(c3ccc(C#N)c(C(F)(F)F)c3)C(=O)C23CCC3)cc1F", "note": "[RD162]", "values": [{"measurement": "binding to the AR LBD", "setting": "AR LBD", "result": "bind with high affinity"}]}
